Experimental data published in ChEMBL document CHEMBL1201862, “PubChem BioAssay data set” (2004).
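Where inhibition never reached the appropriate level, the endpoint shown equals the highest concentration tested. Otherwise, values were interpolated linearly from a five-concentration, 48-hour dose response in 96-well plates. Abbreviation: GI50, concentration required for 50% inhibition of growth.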 The source made the active and inactive calls. Cut-off read from the data, not from the text of the source: active = GI50 up to about 1.1 µM and inactive = higher.

Columns and labels:
Assay in all cases: growth of human tumour cells (NCI), 48 h
[1] = test system: RXF 393
[2] = test system: MDA-MB-435
[3] = test system: HT-29
[4] = test system: CAKI-1
[5] = test system: BT-549
[6] = test system: MCF7
[7] = test system: UACC-257
[8] = test system: NCI-H522
[9] = test system: T47D
[10] = test system: IGROV-1
[11] = test system: CCRF-CEM
[12] = test system: COLO 205
[13] = test system: Hs-578T
[14] = test system: SN12C
[15] = test system: SF-295
[16] = test system: NCI/ADR-RES
[17] = test system: SNB-75

Measured: GI50

N#C/C=c1/c2ccccc2n2nc3ccccc3c12
inactive: [1] 16.8 µM | [2] > 100 µM | [3] 25.6 µM | [4] 6.85 µM | [5] > 100 µM | [6] 11.3 µM | [7] > 100 µM | [8] 12.5 µM | [9] > 100 µM | [10] 7.19 µM | [11] 81.7 µM | [12] 16.8 µM | [13] 22.1 µM | [14] 25.2 µM | [15] 21.7 µM | [16] 14.9 µM

CCOC(=O)C1(C/C=C/CCl)CCCC1=O (stereo not drawn)
inactive: [1] 16.8 µM | [2] 20.3 µM | [3] 24.2 µM | [4] 29.6 µM | [5] 18.2 µM | [6] 16.4 µM | [7] 35.2 µM | [8] 23.7 µM | [9] 23.1 µM | [10] 18.3 µM | [11] 19.5 µM | [12] 26 µM | [13] 44 µM | [14] 24.1 µM | [15] 37.2 µM | [16] 19.5 µM | [17] 19.8 µM

COC(=O)c1ccccc1NC(=S)NN(C)C
inactive: [1] > 100 µM | [2] > 100 µM | [4] > 100 µM | [5] > 100 µM | [6] > 100 µM | [7] > 100 µM | [8] > 100 µM | [9] > 100 µM | [10] > 100 µM | [11] > 100 µM | [12] > 100 µM | [13] > 100 µM | [15] > 100 µM | [16] > 100 µM | [17] 28.6 µM

NC(Cc1ccc(S(=O)(=O)O)cc1)C(=O)NC(CCCCNC(=O)NCCCCC(NC(=O)C(N)Cc1ccc(S(=O)(=O)O)cc1)C(=O)NC(Cc1ccc(S(=O)(=O)O)cc1)C(=O)O)C(=O)NC(Cc1ccc(S(=O)(=O)O)cc1)C(=O)O (stereo not drawn)
inactive: [1] > 100 µM | [2] > 100 µM | [3] > 100 µM | [4] > 100 µM | [5] > 100 µM | [6] 69.5 µM | [7] > 100 µM | [8] > 100 µM | [9] > 100 µM | [10] > 100 µM | [11] > 100 µM | [12] > 100 µM | [13] > 100 µM | [14] > 100 µM | [15] > 100 µM | [16] > 100 µM | [17] > 100 µM

OC[C@H]1N[C@H](CO)[C@@H](O)[C@H]1O
inactive: [1] > 100 µM | [2] > 100 µM | [3] > 100 µM | [4] > 100 µM | [5] > 100 µM | [6] > 100 µM | [7] > 100 µM | [8] > 100 µM | [9] > 100 µM | [10] > 100 µM | [11] > 100 µM | [12] > 100 µM | [13] > 100 µM | [14] > 100 µM | [15] > 100 µM | [16] > 100 µM | [17] > 100 µM

COc1cc2nc(-c3ccccc3)cc(O)c2c(OC)c1OC
inactive: [1] > 100 µM | [2] > 100 µM | [3] > 100 µM | [5] > 100 µM | [6] 67.1 µM | [7] > 100 µM | [8] > 100 µM | [9] 34.1 µM | [10] > 100 µM | [11] > 100 µM | [12] > 100 µM | [13] > 100 µM | [14] > 100 µM | [15] > 100 µM | [16] > 100 µM | [17] > 100 µM
